Like-named read-outs stand apart in the source and are kept apart here.
Columns and labels:
Test in all cases: biochemical
KIT-autoinhibited = KIT-autoinhibited (Homo sapiens, UniProt P10721); settings: read-out: CPT-1-70-1 (1uM) % control
KIT(V559D,T670I) = KIT(V559D,T670I) (Homo sapiens, UniProt P10721, T670I/V559D); settings: read-out: CPT-1-70-1 (1uM) % control
[1] = molecular target: ABL1(Q252H)-nonphosphorylated (Homo sapiens, UniProt P00519, Q252H)
[2] = molecular target: ABL1(F317L)-phosphorylated (Homo sapiens, UniProt P00519, F317L)
EPHA8 = EPHA8 (Homo sapiens, UniProt P29322); settings: read-out: CPT-1-70-1 (1uM) % control
ERK8 = ERK8 (Homo sapiens, UniProt Q8TD08); settings: read-out: CPT-1-70-1 (1uM) % control
EGFR(T790M) = EGFR(T790M) (Homo sapiens, UniProt P00533, T790M); settings: read-out: CPT-1-70-1 (1uM) % control
EPHA5 = EPHA5 (Homo sapiens, UniProt P54756); settings: read-out: CPT-1-70-1 (1uM) % control
ALK(C1156Y) = ALK(C1156Y) (Homo sapiens, UniProt Q9UM73, C1156Y); settings: read-out: CPT-1-70-1 (1uM) % control
EPHA1 = EPHA1 (Homo sapiens, UniProt P21709); settings: read-out: CPT-1-70-1 (1uM) % control
EPHA4 = EPHA4 (Homo sapiens, UniProt P54764); settings: read-out: CPT-1-70-1 (1uM) % control
ERBB3 = ERBB3 (Homo sapiens, UniProt P21860); settings: read-out: CPT-1-70-1 (1uM) % control
HASPIN = HASPIN (Homo sapiens, UniProt Q8TF76); settings: read-out: CPT-1-70-1 (1uM) % control
EIF2AK1 = EIF2AK1 (Homo sapiens, UniProt Q9BQI3); settings: read-out: CPT-1-70-1 (1uM) % control
EPHB3 = EPHB3 (Homo sapiens, UniProt P54753); settings: read-out: CPT-1-70-1 (1uM) % control
ERK5 = ERK5 (Homo sapiens, UniProt Q13164); settings: read-out: CPT-1-70-1 (1uM) % control
ERK3 = ERK3 (Homo sapiens, UniProt Q16659); settings: read-out: CPT-1-70-1 (1uM) % control
ERBB4 = ERBB4 (Homo sapiens, UniProt Q15303); settings: read-out: CPT-1-70-1 (1uM) % control
EPHB6 = EPHB6 (Homo sapiens, UniProt O15197); settings: read-out: CPT-1-70-1 (1uM) % control
EPHB4 = EPHB4 (Homo sapiens, UniProt P54760); settings: read-out: CPT-1-70-1 (1uM) % control
ERK2 = ERK2 (Homo sapiens, UniProt P28482); settings: read-out: CPT-1-70-1 (1uM) % control
EPHA2 = EPHA2 (Homo sapiens, UniProt P29317); settings: read-out: CPT-1-70-1 (1uM) % control
EPHB1 = EPHB1 (Homo sapiens, UniProt P54762); settings: read-out: CPT-1-70-1 (1uM) % control
EPHA3 = EPHA3 (Homo sapiens, UniProt P29320); settings: read-out: CPT-1-70-1 (1uM) % control
EPHA7 = EPHA7 (Homo sapiens, UniProt Q15375); settings: read-out: CPT-1-70-1 (1uM) % control
PFPK5(P.falciparum) = PFPK5(P.falciparum) (Plasmodium falciparum, UniProt P61075); settings: read-out: CPT-1-70-1 (1μM) % control
PFCDPK1(P.falciparum) = PFCDPK1(P.falciparum) (Plasmodium falciparum, UniProt P62344); settings: read-out: CPT-1-70-1 (1μM) % control
PKNB(M.tuberculosis) = PKNB(M.tuberculosis) (Mycobacterium tuberculosis, UniProt P9WI81); settings: read-out: CPT-1-70-1 (1μM) % control
[3] = molecular target: ABL1(E255K)-phosphorylated (Homo sapiens, UniProt P00519, E255K); settings: read-out: CPT-1-70-1 (1μM) % control
[4] = read-out: CPT-1-70-1 (1uM) % control
[5] = read-out: HYJ-2-002-1 (1uM) % control

EPHA1, sequence (P21709 whole entry): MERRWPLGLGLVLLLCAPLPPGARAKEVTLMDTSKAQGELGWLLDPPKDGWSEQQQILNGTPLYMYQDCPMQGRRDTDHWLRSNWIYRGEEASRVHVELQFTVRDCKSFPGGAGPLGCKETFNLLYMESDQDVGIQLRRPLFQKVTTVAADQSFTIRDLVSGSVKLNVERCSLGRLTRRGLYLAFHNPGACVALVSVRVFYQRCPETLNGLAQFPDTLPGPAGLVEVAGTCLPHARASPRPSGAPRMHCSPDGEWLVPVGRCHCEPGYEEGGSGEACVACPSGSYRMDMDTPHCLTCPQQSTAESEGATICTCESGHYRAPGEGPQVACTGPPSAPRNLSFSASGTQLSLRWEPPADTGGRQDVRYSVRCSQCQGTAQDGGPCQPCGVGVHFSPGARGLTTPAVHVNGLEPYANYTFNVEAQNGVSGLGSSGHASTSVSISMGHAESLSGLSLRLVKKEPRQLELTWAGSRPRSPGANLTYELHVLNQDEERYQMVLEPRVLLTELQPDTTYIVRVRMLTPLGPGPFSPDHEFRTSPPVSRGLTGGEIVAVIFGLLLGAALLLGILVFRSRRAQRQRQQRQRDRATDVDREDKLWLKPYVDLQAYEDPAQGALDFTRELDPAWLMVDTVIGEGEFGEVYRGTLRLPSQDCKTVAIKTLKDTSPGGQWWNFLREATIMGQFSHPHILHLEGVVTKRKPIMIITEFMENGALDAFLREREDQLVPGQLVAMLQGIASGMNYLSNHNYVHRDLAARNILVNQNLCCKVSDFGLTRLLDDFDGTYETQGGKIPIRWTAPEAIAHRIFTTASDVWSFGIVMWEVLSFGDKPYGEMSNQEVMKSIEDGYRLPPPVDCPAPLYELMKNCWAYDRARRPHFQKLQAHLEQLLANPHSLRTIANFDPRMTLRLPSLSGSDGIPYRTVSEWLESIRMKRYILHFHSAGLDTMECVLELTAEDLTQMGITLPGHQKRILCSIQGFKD
ERK5, sequence (Q13164 whole entry): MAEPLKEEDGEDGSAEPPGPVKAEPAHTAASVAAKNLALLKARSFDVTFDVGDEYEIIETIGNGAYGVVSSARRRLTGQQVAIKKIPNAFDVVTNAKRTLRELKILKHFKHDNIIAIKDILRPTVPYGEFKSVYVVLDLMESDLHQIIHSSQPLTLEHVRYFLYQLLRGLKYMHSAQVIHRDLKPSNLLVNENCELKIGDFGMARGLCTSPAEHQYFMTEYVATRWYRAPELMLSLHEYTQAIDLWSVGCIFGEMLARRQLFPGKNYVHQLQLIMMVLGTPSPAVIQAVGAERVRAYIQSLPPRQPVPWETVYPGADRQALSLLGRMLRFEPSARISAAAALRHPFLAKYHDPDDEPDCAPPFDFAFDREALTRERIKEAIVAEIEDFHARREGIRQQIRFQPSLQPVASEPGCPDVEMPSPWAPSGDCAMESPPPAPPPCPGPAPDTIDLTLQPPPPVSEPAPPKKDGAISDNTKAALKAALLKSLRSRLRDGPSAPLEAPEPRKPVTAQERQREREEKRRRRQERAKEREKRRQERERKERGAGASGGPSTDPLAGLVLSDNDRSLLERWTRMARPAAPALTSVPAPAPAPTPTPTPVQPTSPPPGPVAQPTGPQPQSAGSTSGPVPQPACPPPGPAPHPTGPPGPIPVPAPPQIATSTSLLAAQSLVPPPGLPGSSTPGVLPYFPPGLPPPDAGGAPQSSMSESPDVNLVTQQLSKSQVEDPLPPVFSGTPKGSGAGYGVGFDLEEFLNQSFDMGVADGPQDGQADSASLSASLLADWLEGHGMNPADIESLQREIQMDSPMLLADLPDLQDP
EPHB3, sequence (P54753 whole entry): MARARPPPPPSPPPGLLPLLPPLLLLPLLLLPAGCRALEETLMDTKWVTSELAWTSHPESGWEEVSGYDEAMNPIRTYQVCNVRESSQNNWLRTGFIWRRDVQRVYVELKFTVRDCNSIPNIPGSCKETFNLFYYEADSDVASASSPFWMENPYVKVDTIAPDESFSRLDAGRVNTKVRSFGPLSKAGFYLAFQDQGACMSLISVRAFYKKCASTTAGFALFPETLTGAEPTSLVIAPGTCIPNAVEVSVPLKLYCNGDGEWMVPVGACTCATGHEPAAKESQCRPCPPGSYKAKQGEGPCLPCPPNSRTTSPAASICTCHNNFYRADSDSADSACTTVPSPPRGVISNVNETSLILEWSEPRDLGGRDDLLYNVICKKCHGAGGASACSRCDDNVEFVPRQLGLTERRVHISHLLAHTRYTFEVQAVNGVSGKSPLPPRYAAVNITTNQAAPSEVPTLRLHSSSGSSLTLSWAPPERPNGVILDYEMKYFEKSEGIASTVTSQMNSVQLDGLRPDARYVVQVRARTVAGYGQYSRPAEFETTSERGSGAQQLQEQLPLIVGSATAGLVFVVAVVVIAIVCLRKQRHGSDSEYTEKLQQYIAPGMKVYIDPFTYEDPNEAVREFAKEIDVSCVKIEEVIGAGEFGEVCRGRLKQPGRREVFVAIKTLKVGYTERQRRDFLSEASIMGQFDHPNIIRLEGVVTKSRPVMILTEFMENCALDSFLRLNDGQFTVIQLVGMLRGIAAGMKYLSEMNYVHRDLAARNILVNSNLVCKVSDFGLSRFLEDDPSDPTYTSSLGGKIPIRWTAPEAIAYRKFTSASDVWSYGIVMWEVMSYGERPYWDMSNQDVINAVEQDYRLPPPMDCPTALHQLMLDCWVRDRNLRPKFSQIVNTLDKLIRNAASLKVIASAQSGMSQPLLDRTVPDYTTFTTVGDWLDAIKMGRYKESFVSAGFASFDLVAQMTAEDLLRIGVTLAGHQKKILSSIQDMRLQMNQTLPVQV
EPHB6, sequence (O15197 whole entry): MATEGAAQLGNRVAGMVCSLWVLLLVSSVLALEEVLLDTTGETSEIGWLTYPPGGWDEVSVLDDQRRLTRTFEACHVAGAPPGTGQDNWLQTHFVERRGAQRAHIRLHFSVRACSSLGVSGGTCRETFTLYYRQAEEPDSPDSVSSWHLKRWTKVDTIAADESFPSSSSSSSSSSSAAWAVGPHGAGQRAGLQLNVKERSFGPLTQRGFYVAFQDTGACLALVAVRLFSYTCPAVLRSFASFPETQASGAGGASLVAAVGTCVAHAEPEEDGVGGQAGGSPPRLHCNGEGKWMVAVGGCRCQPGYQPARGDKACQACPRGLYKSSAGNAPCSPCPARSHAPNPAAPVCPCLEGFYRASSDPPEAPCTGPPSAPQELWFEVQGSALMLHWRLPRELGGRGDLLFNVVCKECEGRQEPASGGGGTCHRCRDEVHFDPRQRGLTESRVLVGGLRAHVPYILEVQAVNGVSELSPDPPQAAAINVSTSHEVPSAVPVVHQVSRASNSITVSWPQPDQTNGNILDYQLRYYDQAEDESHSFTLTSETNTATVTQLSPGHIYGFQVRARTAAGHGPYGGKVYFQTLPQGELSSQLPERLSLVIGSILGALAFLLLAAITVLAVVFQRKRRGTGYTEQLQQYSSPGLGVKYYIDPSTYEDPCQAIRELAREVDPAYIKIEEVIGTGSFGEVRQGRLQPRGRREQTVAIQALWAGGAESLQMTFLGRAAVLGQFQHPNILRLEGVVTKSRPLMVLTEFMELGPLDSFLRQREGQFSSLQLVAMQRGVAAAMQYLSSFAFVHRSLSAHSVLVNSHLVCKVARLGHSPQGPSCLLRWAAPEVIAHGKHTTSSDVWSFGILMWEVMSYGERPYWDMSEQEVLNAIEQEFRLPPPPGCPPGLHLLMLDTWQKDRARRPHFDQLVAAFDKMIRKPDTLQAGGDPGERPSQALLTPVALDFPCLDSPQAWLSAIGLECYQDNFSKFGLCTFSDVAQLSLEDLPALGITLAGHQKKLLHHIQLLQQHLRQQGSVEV
ERBB4, sequence (Q15303 whole entry): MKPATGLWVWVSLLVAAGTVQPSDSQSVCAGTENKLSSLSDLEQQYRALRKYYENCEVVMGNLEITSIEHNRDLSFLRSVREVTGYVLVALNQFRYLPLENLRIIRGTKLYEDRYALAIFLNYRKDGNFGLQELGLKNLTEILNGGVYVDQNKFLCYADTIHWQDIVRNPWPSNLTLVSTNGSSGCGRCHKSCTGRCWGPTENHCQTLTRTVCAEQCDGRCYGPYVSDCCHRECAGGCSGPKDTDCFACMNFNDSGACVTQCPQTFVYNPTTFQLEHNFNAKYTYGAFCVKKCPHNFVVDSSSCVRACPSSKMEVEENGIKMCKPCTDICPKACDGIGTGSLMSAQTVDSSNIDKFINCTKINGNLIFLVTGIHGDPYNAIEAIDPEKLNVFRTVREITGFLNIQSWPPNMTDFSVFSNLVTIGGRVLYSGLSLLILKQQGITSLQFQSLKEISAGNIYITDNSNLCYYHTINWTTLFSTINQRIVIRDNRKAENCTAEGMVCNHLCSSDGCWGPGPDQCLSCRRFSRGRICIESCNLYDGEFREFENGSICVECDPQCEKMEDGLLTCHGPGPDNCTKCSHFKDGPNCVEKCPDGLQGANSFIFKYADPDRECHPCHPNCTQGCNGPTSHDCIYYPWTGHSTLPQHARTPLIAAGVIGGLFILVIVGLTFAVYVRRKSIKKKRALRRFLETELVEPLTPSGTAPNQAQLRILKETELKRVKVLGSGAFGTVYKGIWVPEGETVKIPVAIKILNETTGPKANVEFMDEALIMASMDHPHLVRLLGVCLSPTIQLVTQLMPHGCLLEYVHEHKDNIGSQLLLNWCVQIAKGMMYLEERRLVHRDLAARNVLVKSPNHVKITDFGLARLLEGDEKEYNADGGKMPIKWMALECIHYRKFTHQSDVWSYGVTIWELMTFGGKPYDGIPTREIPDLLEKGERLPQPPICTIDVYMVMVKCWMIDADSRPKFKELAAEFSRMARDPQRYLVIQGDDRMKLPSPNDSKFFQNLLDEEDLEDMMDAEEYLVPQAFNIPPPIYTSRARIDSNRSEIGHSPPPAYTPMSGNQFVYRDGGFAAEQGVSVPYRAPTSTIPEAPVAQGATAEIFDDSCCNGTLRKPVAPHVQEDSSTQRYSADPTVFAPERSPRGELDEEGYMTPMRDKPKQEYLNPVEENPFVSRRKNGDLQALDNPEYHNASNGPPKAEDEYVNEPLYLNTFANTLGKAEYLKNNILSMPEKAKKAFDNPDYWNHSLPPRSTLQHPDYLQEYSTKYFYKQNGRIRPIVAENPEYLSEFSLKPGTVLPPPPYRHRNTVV

SMILES: CN1CCN(c2ccc(Nc3nc(Oc4ccc(NC(=O)CCl)cc4)c4cc[nH]c4n3)cc2)CC1 [CPT1-70-1]
- remaining activity at 1 µM (KIT-autoinhibited): 39%
- remaining activity at 1 µM (KIT(V559D,T670I)): 28%
- remaining activity at 1 µM [1, 4]: 52%
- remaining activity at 1 µM [2, 4]: 99%
- remaining activity at 1 µM (EPHA8): 53%
- remaining activity at 1 µM (ERK8): 86%
- remaining activity at 1 µM (EGFR(T790M)): 0.8%
- remaining activity at 1 µM (EPHA5): 100%
- remaining activity at 1 µM (ALK(C1156Y)): 52%
- remaining activity at 1 µM (EPHA1): 79%
- remaining activity at 1 µM (EPHA4): 94%
- remaining activity at 1 µM (ERBB3): 53%
- remaining activity at 1 µM (HASPIN): 100%
- remaining activity at 1 µM (EIF2AK1): 100%
- remaining activity at 1 µM (EPHB3): 100%
- remaining activity at 1 µM (ERK5): 87%
- remaining activity at 1 µM (ERK3): 1%
- remaining activity at 1 µM (ERBB4): 4.6%
- remaining activity at 1 µM (EPHB6): 44%
- remaining activity at 1 µM (EPHB4): 100%
- remaining activity at 1 µM (ERK2): 100%
- remaining activity at 1 µM (EPHA2): 96%
- remaining activity at 1 µM (EPHB1): 84%
- remaining activity at 1 µM (EPHA3): 100%
- remaining activity at 1 µM (EPHA7): 62%
- remaining activity at 1 µM (PFPK5(P.falciparum)): 100%
- remaining activity at 1 µM (PFCDPK1(P.falciparum)): 100%
- remaining activity at 1 µM (PKNB(M.tuberculosis)): 58%
- remaining activity at 1 µM [3]: 90%

SMILES: CCN1CCN(Cc2ccc(NC(=O)c3ccc(C)c(CCc4cnc5[nH]ccc5c4OC)c3)cc2C(F)(F)F)CC1 [HYJ-2-002-1]
- remaining activity at 1 µM [1, 5]: 0.05%
- remaining activity at 1 µM [2, 5]: 2%
